# Data from the CombiSolv-Exp solvation set (Vermeire and Green 2021).
# Experiment: solvent given as SMILES
compound,measurement,setting,value
O=COc1ccccc1,"solvation free energy, 298 K",in O,-3.82 kcal/mol
Nc1ccc(S(N)(=O)=O)cc1,"solvation free energy, 298 K",in O,-14.8 kcal/mol
C#CCCCC,"solvation free energy, 298 K",in C1CCC2CCCCC2C1,-3.68 kcal/mol
same,"solvation free energy, 298 K",in C1CCC(C2CCCCC2)CC1,-3.65 kcal/mol
same,"solvation free energy, 298 K",in CN1CCCC1=O,-4.11 kcal/mol
same,"solvation free energy, 298 K",in CN(C)C=O,-3.94 kcal/mol
same,"solvation free energy, 298 K",in CS(C)=O,-3.55 kcal/mol
same,"solvation free energy, 298 K",in N#CCCCCC#N,-3.32 kcal/mol
same,"solvation free energy, 298 K",in NCCO,-2.4 kcal/mol
same,"solvation free energy, 298 K",in O,0.29 kcal/mol
same,"solvation free energy, 298 K",in O=Cc1ccco1,-3.57 kcal/mol
same,"solvation free energy, 298 K",in OCc1ccco1,-3.31 kcal/mol
same,"solvation free energy, 298 K",in c1ccc2c(c1)CCCC2,-3.99 kcal/mol
same,"solvation free energy, 298 K",in c1ccc(C2CCCCC2)cc1,-3.88 kcal/mol
O=CO,"solvation free energy, 298 K",in C=CCCCCCCC=C,-2.89 kcal/mol
same,"solvation free energy, 298 K",in C=CCCCCCCCCCCCCCC,-2.47 kcal/mol
ClC=C(Cl)Cl,"solvation free energy, 298 K",in C1COCCO1,-4.91 kcal/mol
same,"solvation free energy, 298 K",in CC(=O)N(C)C,-4.8 kcal/mol
same,"solvation free energy, 298 K",in CCCCCCCCC=CCCCCCCCC(=O)OCC(COC(=O)CCCCCCCC=CCCCCCCCC)OC(=O)CCCCCCCC=CCCCCCCCC,-4.37 kcal/mol
same,"solvation free energy, 298 K",in CCCCCCCCCC,-3.84 kcal/mol
same,"solvation free energy, 298 K",in CCCCCCCCO,-4.09 kcal/mol
same,"solvation free energy, 298 K",in CCCCN(C=O)CCCC,-4.62 kcal/mol
same,"solvation free energy, 298 K",in CNC(C)=O,-4.35 kcal/mol
same,"solvation free energy, 298 K",in O,-0.46 kcal/mol
O=c1cc(Cl)[nH]c(=O)[nH]1,"solvation free energy, 298 K",in O,-15.8 kcal/mol
OC1CCCCC1,"solvation free energy, 298 K",in Brc1ccccc1,-6.47 kcal/mol
same,"solvation free energy, 298 K",in C1CCOC1,-7.24 kcal/mol
same,"solvation free energy, 298 K",in CC#N,-6.37 kcal/mol
same,"solvation free energy, 298 K",in CC(C)=O,-6.94 kcal/mol
same,"solvation free energy, 298 K",in CC(C)CC(C)(C)C,-5.02 kcal/mol
same,"solvation free energy, 298 K",in CC(C)O,-7.35 kcal/mol
same,"solvation free energy, 298 K",in CCCCCCCCCCCCCCCC,-4.89 kcal/mol
same,"solvation free energy, 298 K",in CCCCCCCCCCO,-7.49 kcal/mol
same,"solvation free energy, 298 K",in CCCCCCCCO,-7.02 kcal/mol
same,"solvation free energy, 298 K",in CCCCOC(C)=O,-7.07 kcal/mol
same,"solvation free energy, 298 K",in CO,-7.69 kcal/mol
same,"solvation free energy, 298 K",in O,-5.44 kcal/mol
same,"solvation free energy, 298 K",in [2H]O[2H],-5.7 kcal/mol
Clc1cccc(Cl)c1-c1c(Cl)cccc1Cl,"solvation free energy, 298 K",in O,-2.17 kcal/mol
Cc1ccc(N(O)C(=O)COc2ccccc2)cc1,"solvation free energy, 298 K",in O,-12.8 kcal/mol
Oc1ccc(-c2ccccc2)cc1,"solvation free energy, 298 K",in CC(C)CC(C)(C)C,-9.58 kcal/mol
same,"solvation free energy, 298 K",in CCCCOCCCC,-12.8 kcal/mol
same,"solvation free energy, 298 K",in O,-8.89 kcal/mol
O=C(O)C=CC(=O)O,"solvation free energy, 298 K",in CC(C)=O,-10.2 kcal/mol
same,"solvation free energy, 298 K",in CC(C)O,-10.8 kcal/mol
same,"solvation free energy, 298 K",in CCCO,-10.6 kcal/mol
same,"solvation free energy, 298 K",in CCO,-10.8 kcal/mol
same,"solvation free energy, 298 K",in O,-9.96 kcal/mol
same,"solvation free energy, 298 K",in O=C1CCCCC1,-9.9 kcal/mol
CCCCCC(=O)CC(=O)CCCCC,"solvation free energy, 298 K",in O,-3.68 kcal/mol
